“And” between values parts separate entries of the source, which are not always exact repeats. Equal values may be shown once. Read-outs that look alike come from different tables or passages of the source. Marks after values point to notes of the source that are not given here.
How the values were obtained:
[1] = Microsomal stability; format: in vitro ADME; conditions: mouse liver microsomes, NADPH, 37°C; read-out: half-life in mouse liver microsomes (t1/2)
Description: Microsomal stability assay was performed as previously described. CCG-211790 (100 mM stock solution in DMSO) was diluted 1000-fold with phosphate-buffered saline (PBS) containing up to 10% MeOH as a co-solvent. Compound (100 μM) was added to 366 μL of 100 mM phosphate buffer containing 3.3 mM MgCl2 and 10 μL of 20 mg/mL mouse liver microsomal extract (XenoTech, Lenexa, KS, USA). Enzymatic oxidation was initiated by adding 15 μL of 16.7 mg/mL NADPH in 100 mM phosphate buffer containing 3.3 mM MgCl2. The reactions were carried out at 37°C for 60 min. Aliquots of the reaction mixture (30 μL) were sampled and the reaction was stopped by adding 90 μL cold acetonitrile containing an internal standard compound at each time point (0, 1, 3, 5, 10, 30, and 60 min). The quenched sample mixtures were centrifuged at 16,000 g for 10 min. The supernatant was then analyzed via an LC–MS/MS system equipped with a reverse-phase column.

[2] = Mammalian cell cytotoxicity assay (CCK-8); format: cell-based, human; conditions: human, TZM-bL cells, 24 h
Description: (§1) Cell cytotoxicity assay was performed by following previous protocols with minor revision. TZM-bL cells which is a HeLa cell derivative (a generous gift from Dr. Xiao Heng, University of Missouri) (100 μL, 5,000 cells per well) were grown in Dulbecco’s modified Eagle’s medium (DMEM) (Life Technologies, Grand Island, NY, USA) with 10% fetal bovine serum for 24 h at 37°C in 5% CO2 in duplicates. Supernatant was replaced with 100 μL fresh medium with different concentrations of CCG-211790 to culture the cells for 24 h at 37°C in 5% CO2. DMSO was used as the vehicle control. Ten μL of Cell Counting Kit-8 (CCK-8) solution (APExBIO, Houston, TX, USA) was added to each well of the plate. After 2 h, the plate was read at 450 nm by using a BioTek spectrophotometer (BioTek, Winooski, VT, USA). One hundred percent viability was set at the absorbance of the cells treated with only the vehicle (DMSO). The assay was performed twice in duplicates to obtain the mean and standard deviation of cell viability. The cell viability (survival rate) was calculated with the equation: Survival rate (%) = [(As—Ab) / (Ac—Ab)] x 100, As = Absorbance of tested compound (Absorbance of well containing cells, culture medium, CCK-8 and compound), Ab = Absorbance of blank (Absorbance of well containing culture medium and CCK-8), Ac = Absorbance of control (Absorbance of well containing cell, DMSO and CCK-8).

[3] = tested on: TZM-bL cells; assay: Mammalian cell cytotoxicity assay (CCK-8); format: cell-based, human; conditions: for Cell viability %: single samples
Description: as §1

[4] = Effect of pH on CCG-211790 degradation; format: physicochemical; conditions: for CCG-211790 concentration: 37°C; for chemical stability: twelve weeks
Description: The concentration of CCG-211790 in deionized water or aqueous solutions was determined using an Agilent series 1100 HPLC system (Agilent Technologies, Santa Clara, CA, USA) equipped with diode array detector. Sample separation was carried out with a Kinetex C18 column (75 mm × 3 mm, particle size 2.6 μm, Phenomenex Inc., Torrance, CA, USA). The mobile phase of acetonitrile-water (50:50, v/v) was used for chromatographic separation. The flow rate was set to 0.5 mL/min, column temperature to 35°C. The absorption was measured at wavelength 255 nm. The injection volume was 30 μL. The retention time of CCG-211790 was 4.9 min. The method detection limit was 0.02 mg/L. Calibration curves were established giving a correlation coefficient >0.9900. Effect of pH on CCG-211790 degradation was investigated at indicated pH (1–10) over a period of three months. Briefly, pH 1, 2 or 10 were achieved by dissolving CCG-211790 bulk powder in a mixture of acetonitrile and water (25:75, v/v) with the pH being adjusted with hydrochloride acid solution (12 mole/L) or sodium hydroxide solution (15 mole/L). Similarly, pH 3–9 were achieved by dissolving CCG-211790 powder in a mixture of acetonitrile and PBS (25:75, v/v) with the pH also being adjusted with the hydrochloride acid solution or the sodium hydroxide solution. All samples were incubated at 37°C. CCG-211790 concentrations in the mixture solutions were determined via HPLC analysis at predetermined time points (0, 2, 4 and 12 weeks).

[5] = TZM-bL cells (HeLa cell derivative), single samples, read-out: Cell viability %
[6] = TZM-bL cells (HeLa cell derivative), read-out: Mean of cell viability

half-life [1]: 19.6 min
CCG-211790 concentration ([4]; pH 1, 0 week, acetonitrile/water): 11.1 µg/mL
CCG-211790 concentration ([4]; pH 1, 2 weeks, acetonitrile/water): 9.4 ^* μg/mL
CCG-211790 concentration ([4]; pH 1, 4 weeks, acetonitrile/water): 7.2 ^** μg/mL
CCG-211790 concentration ([4]; pH 1, 12 weeks, acetonitrile/water): 2.1 ^** μg/mL
chemical stability ([4]; pH 1, 37°C): degraded
CCG-211790 concentration ([4]; pH 2, 0 week, acetonitrile/water): 11.6 µg/mL
CCG-211790 concentration ([4]; pH 2, 2 weeks, acetonitrile/water): 11.9 µg/mL
CCG-211790 concentration ([4]; pH 2, 4 weeks, acetonitrile/water): 11.2 ^* μg/mL
CCG-211790 concentration ([4]; pH 2, 12 weeks, acetonitrile/water): 10.7 ^* μg/mL
chemical stability ([4]; pH 2–10, 37°C): maintained most chemical stability
CCG-211790 concentration ([4]; pH 3, 0 week, acetonitrile/PBS): 11.9 µg/mL
CCG-211790 concentration ([4]; pH 3, 2 weeks, acetonitrile/PBS): 11.9 µg/mL
CCG-211790 concentration ([4]; pH 3, 4 weeks, acetonitrile/PBS): 11.4 µg/mL
CCG-211790 concentration ([4]; pH 3, 12 weeks, acetonitrile/PBS): 11.7 µg/mL
CCG-211790 concentration ([4]; pH 4, 0 week, acetonitrile/PBS): 10.9 µg/mL
CCG-211790 concentration ([4]; pH 4, 2 weeks, acetonitrile/PBS): 11.4 µg/mL
CCG-211790 concentration ([4]; pH 4, 4 weeks, acetonitrile/PBS): 11.6 ^* μg/mL
CCG-211790 concentration ([4]; pH 4, 12 weeks, acetonitrile/PBS): 11.3 µg/mL
CCG-211790 concentration ([4]; pH 5, 0 week, acetonitrile/PBS): 11.0 µg/mL
CCG-211790 concentration ([4]; pH 5, 2 weeks, acetonitrile/PBS): 11.3 ^* μg/mL
CCG-211790 concentration ([4]; pH 5, 4 weeks, acetonitrile/PBS): 11.5 µg/mL
CCG-211790 concentration ([4]; pH 5, 12 weeks, acetonitrile/PBS): 11.2 µg/mL
CCG-211790 concentration ([4]; pH 6, 0 week, acetonitrile/PBS): 11.1 µg/mL
CCG-211790 concentration ([4]; pH 6, 2 weeks, acetonitrile/PBS): 11.4 µg/mL
CCG-211790 concentration ([4]; pH 6, 4 weeks, acetonitrile/PBS): 11.0 µg/mL
CCG-211790 concentration ([4]; pH 6, 12 weeks, acetonitrile/PBS): 10.1 µg/mL
CCG-211790 concentration ([4]; pH 7, 0 week, acetonitrile/PBS): 11.8 µg/mL
CCG-211790 concentration ([4]; pH 7, 2 weeks, acetonitrile/PBS): 11.2 ^* μg/mL
CCG-211790 concentration ([4]; pH 7, 4 weeks, acetonitrile/PBS): 10.9 ^* μg/mL
CCG-211790 concentration ([4]; pH 7, 12 weeks, acetonitrile/PBS): 11.5 µg/mL
CCG-211790 concentration ([4]; pH 8, 0 week, acetonitrile/PBS): 11.2 µg/mL
CCG-211790 concentration ([4]; pH 8, 2 weeks, acetonitrile/PBS): 11.2 µg/mL
CCG-211790 concentration ([4]; pH 8, 4 weeks, acetonitrile/PBS): 11.1 µg/mL
CCG-211790 concentration ([4]; pH 8, 12 weeks, acetonitrile/PBS): 11.6 µg/mL
CCG-211790 concentration ([4]; pH 9, 0 week, acetonitrile/PBS): 11.0 µg/mL
CCG-211790 concentration ([4]; pH 9, 2 weeks, acetonitrile/PBS): 11.3 ^* μg/mL
CCG-211790 concentration ([4]; pH 9, 4 weeks, acetonitrile/PBS): 11.2 µg/mL
CCG-211790 concentration ([4]; pH 9, 12 weeks, acetonitrile/PBS): 10.5 µg/mL
CCG-211790 concentration ([4]; pH 10, 0 week, acetonitrile/water): 10.4 µg/mL
CCG-211790 concentration ([4]; pH 10, 2 weeks, acetonitrile/water): 11.0 ^* μg/mL
CCG-211790 concentration ([4]; pH 10, 4 weeks, acetonitrile/water): 10.5 µg/mL
CCG-211790 concentration ([4]; pH 10, 12 weeks, acetonitrile/water): 10.7 ^* μg/mL
Structure (SMILES): COc1ccc2c(c1)-c1nc(SCC(F)(F)F)n(C)c(=O)c1C(C)(C)C2 [CCG-211790, 9-Methoxy-3,5,5-trimethyl-2-((2,2,2-trifluoroethyl)thio)-5,6-dihydrobenzo[h]quinazolin-4(3H)-one]
viability at 24 h, 6.25 µM [2, 5]: 79.6%
viability at 24 h, 6.25 µM [2, 6]: 84.3%
viability at 24 h, 12.5 µM [2, 5]: 80.8%
viability at 24 h, 12.5 µM [2, 6]: 76.2%
viability at 24 h, 25 µM [2, 5]: 69%
viability at 24 h, 25 µM [2, 6]: 65.3%
viability at 24 h, 50 µM ([2]; TZM-bL cells (HeLa cell derivative), 50 µM, single samples, read-out: Cell viability %): 61.3%
viability at 24 h, 50 µM ([2]; TZM-bL cells (HeLa derivative), 50 μM, normalized to DMSO, read-out: cell survival rate (mean of cell viability)): 56.1 ± 5.3%
cytotoxic concentration (50 μM) as fold of the anti-biofilm IC50 ([3]; 50 μM on TZM-bL cells vs biofilm IC50): about 39 fold
Cell viability % ([3]; TZM-bL cells, 6.25 µM, 24 h): 86.99% and 84.77% and 85.92%
Cell viability % ([3]; TZM-bL cells, 12.5 µM, 24 h): 82.11% and 70.18% and 71.70%
Cell viability % ([3]; TZM-bL cells, 25 µM, 24 h): 69.05% and 56.68% and 66.50%
cell survival rate (mean of cell viability) ([3]; TZM-bL cells, 50 μM, 24 h, normalized to DMSO): 56.05%
Cell viability % ([3]; TZM-bL cells, 50 µM, 24 h): 57.46% and 48.66% and 56.82%
